Test results: ChEMBL document CHEMBL4393714, “Multi-targeting protein-protein interaction inhibitors: Evolution of macrocyclic ligands with embedded carbohydrates (MECs) to improve selectivity” (Eur J Med Chem, 2019)

How the values were obtained:
[1] = target: T1, 5-hydroxytryptamine receptor 2A (Homo sapiens, UniProt P28223); test: Displacement of [3H] ketanserin from human recombinant 5-HT2A receptor measured after 60 mins by scintillation counter method
[2] = target: Muscarinic acetylcholine receptor M2 (Homo sapiens) (UniProt P08172); test: Displacement of [3H]AF-DX 384 from human recombinant muscarinic 2 receptor at 10 uM measured after 60 mins by scintillation counter method relative to control
[3] = target: Neuropeptide Y receptor type 1 (Homo sapiens) (UniProt P25929); test: Displacement of [125I] peptide YY from human neuropeptide Y1 receptor at 10 uM measured after 120 mins by scintillation counter method relative to control
[4] = target: Prostaglandin E2 receptor EP4 subtype (Homo sapiens) (UniProt P35408); test: Displacement of [3H]PGE2 from human recombinant EP4 receptor at 10 uM measured after 120 mins by scintillation counter method relative to control
Prostaglandin E2 receptor EP4 subtype (Homo sapiens), sequence (P35408 whole entry): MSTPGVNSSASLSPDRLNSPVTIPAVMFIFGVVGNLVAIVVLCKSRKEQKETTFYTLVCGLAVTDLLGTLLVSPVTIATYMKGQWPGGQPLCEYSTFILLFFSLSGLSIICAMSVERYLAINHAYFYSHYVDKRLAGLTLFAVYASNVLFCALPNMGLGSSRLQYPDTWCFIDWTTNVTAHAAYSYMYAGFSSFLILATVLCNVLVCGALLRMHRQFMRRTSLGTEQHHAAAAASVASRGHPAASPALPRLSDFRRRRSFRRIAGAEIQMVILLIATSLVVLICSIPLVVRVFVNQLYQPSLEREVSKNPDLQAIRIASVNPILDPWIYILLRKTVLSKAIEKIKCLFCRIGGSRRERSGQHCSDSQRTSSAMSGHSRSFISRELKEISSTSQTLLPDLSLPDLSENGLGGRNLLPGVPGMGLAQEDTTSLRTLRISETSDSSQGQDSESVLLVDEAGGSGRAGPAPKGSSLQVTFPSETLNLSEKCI

[5] = target: T2, Sodium-dependent serotonin transporter (Homo sapiens, UniProt P31645); test: Displacement of [3H] imipramine from human recombinant 5-HT transporter measured after 60 mins by scintillation counter method
Target sequence in this assay (P31645 whole entry): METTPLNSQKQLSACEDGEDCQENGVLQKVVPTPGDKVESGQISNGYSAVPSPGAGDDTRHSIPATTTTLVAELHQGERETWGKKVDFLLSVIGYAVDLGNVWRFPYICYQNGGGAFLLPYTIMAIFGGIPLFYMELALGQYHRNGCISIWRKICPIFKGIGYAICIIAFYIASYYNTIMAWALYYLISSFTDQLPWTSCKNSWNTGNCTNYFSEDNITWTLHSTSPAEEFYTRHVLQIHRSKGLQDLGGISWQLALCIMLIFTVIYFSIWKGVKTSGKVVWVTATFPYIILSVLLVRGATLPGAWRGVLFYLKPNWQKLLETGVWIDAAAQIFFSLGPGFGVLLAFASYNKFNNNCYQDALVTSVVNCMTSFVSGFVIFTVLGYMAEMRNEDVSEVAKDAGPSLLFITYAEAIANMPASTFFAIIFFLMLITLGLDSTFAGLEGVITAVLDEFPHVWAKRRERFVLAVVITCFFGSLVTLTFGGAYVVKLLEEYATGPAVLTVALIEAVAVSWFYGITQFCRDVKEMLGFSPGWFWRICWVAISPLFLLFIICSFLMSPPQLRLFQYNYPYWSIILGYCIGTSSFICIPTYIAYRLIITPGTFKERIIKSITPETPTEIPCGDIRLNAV

[6] = target: 5-hydroxytryptamine receptor 3A (Homo sapiens) (UniProt P46098); test: Displacement of [3H] BRL 43694 from human 5-HT3 at 10 uM measured after 120 mins by scintillation counter method relative to control
5-hydroxytryptamine receptor 3A (Homo sapiens), sequence (P46098 whole entry): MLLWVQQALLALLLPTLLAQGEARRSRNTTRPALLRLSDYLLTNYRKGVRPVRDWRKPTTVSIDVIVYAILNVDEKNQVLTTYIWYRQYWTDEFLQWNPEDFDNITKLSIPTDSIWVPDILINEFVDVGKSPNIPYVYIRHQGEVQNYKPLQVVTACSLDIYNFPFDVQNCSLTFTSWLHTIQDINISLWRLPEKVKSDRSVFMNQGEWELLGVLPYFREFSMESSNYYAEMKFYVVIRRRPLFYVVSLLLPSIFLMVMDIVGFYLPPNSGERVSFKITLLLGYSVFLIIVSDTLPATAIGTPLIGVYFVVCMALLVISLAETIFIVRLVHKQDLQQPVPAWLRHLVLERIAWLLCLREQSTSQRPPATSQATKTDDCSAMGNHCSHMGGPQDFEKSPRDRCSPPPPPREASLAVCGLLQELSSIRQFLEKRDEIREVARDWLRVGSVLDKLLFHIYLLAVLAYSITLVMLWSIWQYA

[7] = target: Type-1 angiotensin II receptor (Homo sapiens) (UniProt P30556); test: Displacement of [125I][Sar1,Ile8]-AT-II from human recombinant AT1 receptor at 10 uM measured after 120 mins by scintillation counter method relative to control
Rattus norvegicus [8] = species on record: Rattus norvegicus; test: Displacement of [125I]alpha dendrotoxin from rat potassium channel at 10 uM measured after 60 mins by scintillation counter method relative to control
[9] = target: Vasopressin V1a receptor (Homo sapiens) (UniProt P37288); test: Displacement of [3H] AVP from human recombinant vasopressin V1A receptor at 10 uM measured after 60 mins by scintillation counter method relative to control
[10] = target: Cannabinoid receptor 1 (Homo sapiens) (UniProt P21554); test: Displacement of [3H]CP 55940 from human recombinant CB1 receptor at 10 uM measured after 120 mins by scintillation counter method relative to control
[11] = target: Histamine H1 receptor (Homo sapiens) (UniProt P35367); test: Displacement of [3H]pyrilamine from human recombinant H1 receptor at 10 uM measured after 60 mins by scintillation counter method relative to control
[12] = target: T3, 5-hydroxytryptamine receptor 1A (Homo sapiens, UniProt P08908); test: Displacement of [3H]OH-DPAT from human recombinant 5-HT1A receptor measured after 60 mins by scintillation counter method
T3 sequence (P08908 whole entry): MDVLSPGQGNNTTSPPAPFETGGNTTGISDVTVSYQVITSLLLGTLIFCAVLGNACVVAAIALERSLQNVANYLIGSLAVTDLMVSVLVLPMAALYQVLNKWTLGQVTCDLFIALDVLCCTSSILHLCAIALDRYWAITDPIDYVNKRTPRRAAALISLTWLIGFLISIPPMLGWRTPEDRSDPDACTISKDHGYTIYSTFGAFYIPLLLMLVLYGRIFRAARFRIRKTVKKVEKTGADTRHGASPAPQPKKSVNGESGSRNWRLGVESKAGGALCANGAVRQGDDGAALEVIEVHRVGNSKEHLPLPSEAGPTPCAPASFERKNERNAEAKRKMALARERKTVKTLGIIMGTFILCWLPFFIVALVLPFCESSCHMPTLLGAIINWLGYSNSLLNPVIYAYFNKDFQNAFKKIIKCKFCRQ

[13] = target: 5-hydroxytryptamine receptor 2B (Homo sapiens, UniProt P41595); test: Displacement of [125I](+/-)DOI from human recombinant 5-HT2B receptor at 10 uM measured after 60 mins by scintillation counter method relative to control
5-hydroxytryptamine receptor 2B, sequence (P41595 whole entry): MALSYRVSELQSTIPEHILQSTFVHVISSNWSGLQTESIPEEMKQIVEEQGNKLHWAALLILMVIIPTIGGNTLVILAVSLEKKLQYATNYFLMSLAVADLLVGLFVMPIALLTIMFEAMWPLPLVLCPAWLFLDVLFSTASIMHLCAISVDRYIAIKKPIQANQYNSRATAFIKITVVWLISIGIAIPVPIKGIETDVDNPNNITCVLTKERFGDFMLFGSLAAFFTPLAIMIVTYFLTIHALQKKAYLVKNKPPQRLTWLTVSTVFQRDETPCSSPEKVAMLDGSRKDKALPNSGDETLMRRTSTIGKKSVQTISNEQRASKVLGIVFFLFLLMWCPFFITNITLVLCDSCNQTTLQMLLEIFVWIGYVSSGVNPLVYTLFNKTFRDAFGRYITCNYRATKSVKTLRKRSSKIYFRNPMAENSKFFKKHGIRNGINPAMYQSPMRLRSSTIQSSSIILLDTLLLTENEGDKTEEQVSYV

[14] = target: 5-hydroxytryptamine receptor 5A (Homo sapiens) (UniProt P47898); test: Displacement of [3H]LSD from human recombinant 5-HT5A receptor at 10 uM measured after 120 mins by scintillation counter method relative to control
5-hydroxytryptamine receptor 5A (Homo sapiens), sequence (P47898 whole entry): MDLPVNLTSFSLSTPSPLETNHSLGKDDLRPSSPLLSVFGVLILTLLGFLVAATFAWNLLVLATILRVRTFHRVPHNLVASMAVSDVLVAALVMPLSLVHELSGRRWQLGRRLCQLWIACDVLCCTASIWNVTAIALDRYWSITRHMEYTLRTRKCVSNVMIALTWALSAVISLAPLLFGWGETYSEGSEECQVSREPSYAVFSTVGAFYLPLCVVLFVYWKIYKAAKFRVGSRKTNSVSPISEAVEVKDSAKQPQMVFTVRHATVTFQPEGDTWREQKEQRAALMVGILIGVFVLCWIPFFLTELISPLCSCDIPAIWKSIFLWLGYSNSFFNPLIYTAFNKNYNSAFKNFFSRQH

Rattus norvegicus [15] = species on record: Rattus norvegicus; test: Displacement of [3H] TBPS from rat GABA gated chloride channel at 10 uM measured after 120 mins by scintillation counter method relative to control
[16] = target: T1, 5-hydroxytryptamine receptor 2A; test: Displacement of [3H] ketanserin from human recombinant 5-HT2A receptor at 10 uM measured after 60 mins by scintillation counter method relative to control
[17] = target: Adrenergic receptor alpha-2 (Rattus norvegicus) (UniProt P22086+P19328+P22909); test: Displacement of [3H] RX 821002 from rat alpha2 adreno receptor at 10 uM measured after 60 mins by scintillation counter method relative to control; format: protein assay
[18] = target: T2, Sodium-dependent serotonin transporter; test: Displacement of [3H] imipramine from human recombinant 5-HT transporter at 10 uM measured after 60 mins by scintillation counter method relative to control
[19] = target: Small conductance calcium-activated potassium channel (Rattus norvegicus) (UniProt P70604+P70606+P70605); test: Displacement of [125I]apamin from rat brain SKCa at 10 uM measured after 60 mins by scintillation counter method relative to control
[20] = Displacement of [3H] batrachotoxinin from rat sodium channel site 2 measured after 60 mins by scintillation counter method
[21] = target: Melatonin receptor type 1A (Homo sapiens) (UniProt P48039); test: Displacement of [125I]2-iodomelatonin from human recombinant MT 1 receptor at 10 uM measured after 60 mins by scintillation counter method relative to control
Melatonin receptor type 1A (Homo sapiens), sequence (P48039 whole entry): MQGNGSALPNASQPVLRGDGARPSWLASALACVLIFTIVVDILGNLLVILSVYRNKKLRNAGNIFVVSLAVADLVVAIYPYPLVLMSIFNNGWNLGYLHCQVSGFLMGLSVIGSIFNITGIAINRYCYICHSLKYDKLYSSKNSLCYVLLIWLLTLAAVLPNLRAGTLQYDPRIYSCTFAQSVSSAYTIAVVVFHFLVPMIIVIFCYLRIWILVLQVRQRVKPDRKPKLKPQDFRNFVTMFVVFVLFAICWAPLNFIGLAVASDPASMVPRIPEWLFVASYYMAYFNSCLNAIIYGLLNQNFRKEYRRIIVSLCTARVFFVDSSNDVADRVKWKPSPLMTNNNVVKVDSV

Rattus norvegicus [22] = species on record: Rattus norvegicus; test: Displacement of [3H]flunitrazepam from rat GABAA Central-type benzodiazepine receptor at 10 uM measured after 120 mins by scintillation counter method relative to control
[23] = target: B2 bradykinin receptor (Homo sapiens) (UniProt P30411); test: Displacement of [3H]bradykinin from human recombinant B2 receptor at 10 uM measured after 60 mins by scintillation counter method relative to control
B2 bradykinin receptor (Homo sapiens), sequence (P30411 whole entry): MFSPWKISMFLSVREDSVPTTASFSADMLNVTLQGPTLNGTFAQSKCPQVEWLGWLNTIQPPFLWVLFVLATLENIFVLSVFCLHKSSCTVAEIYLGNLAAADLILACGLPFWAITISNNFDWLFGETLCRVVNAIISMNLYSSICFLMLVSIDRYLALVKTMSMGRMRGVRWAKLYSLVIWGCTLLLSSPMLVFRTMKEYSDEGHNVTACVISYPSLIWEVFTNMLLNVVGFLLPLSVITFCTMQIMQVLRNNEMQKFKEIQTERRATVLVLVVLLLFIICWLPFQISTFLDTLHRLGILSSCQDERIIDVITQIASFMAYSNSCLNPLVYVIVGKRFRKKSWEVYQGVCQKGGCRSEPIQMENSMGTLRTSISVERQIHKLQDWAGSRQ

[24] = target: Beta-2 adrenergic receptor (Homo sapiens) (UniProt P07550); test: Agonist activity at human beta 2 adreno receptor at 10 uM relative to control
[25] = target: Muscarinic acetylcholine receptor M1 (Homo sapiens) (UniProt P11229); test: Displacement of [3H]pirenzepine from human recombinant muscarinic 1 receptor at 10 uM measured after 60 mins by scintillation counter method relative to control
Muscarinic acetylcholine receptor M1 (Homo sapiens), sequence (P11229 whole entry): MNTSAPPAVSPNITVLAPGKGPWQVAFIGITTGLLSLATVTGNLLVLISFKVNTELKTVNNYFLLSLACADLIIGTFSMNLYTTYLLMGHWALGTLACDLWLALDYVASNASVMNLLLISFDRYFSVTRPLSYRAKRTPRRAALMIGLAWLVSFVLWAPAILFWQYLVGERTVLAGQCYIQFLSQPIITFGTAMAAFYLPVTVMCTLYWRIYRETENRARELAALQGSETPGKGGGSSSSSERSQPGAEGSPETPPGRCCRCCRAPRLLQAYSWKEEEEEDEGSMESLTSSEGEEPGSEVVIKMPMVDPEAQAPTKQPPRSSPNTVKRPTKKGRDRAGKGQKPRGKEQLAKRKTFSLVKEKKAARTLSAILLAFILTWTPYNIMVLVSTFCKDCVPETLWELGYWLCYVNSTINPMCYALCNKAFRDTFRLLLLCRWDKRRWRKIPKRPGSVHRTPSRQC

[26] = target: Galanin receptor type 2 (Homo sapiens) (UniProt O43603); test: Displacement of [125I]galanin from human recombinant GAL2 receptor at 10 uM measured after 120 mins by scintillation counter method relative to control
Galanin receptor type 2 (Homo sapiens), sequence (O43603 whole entry): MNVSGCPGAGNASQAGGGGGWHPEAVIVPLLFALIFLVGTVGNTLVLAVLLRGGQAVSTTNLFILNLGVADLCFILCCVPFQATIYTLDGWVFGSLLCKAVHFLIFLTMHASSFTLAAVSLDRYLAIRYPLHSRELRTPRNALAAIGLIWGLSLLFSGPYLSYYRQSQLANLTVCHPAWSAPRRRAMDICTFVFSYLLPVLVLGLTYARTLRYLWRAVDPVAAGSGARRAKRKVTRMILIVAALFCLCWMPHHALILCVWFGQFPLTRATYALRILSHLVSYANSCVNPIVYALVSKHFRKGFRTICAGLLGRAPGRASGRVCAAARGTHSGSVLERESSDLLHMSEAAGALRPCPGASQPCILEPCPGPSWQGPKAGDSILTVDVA

[27] = target: Cholecystokinin receptor type A (Homo sapiens) (UniProt P32238); test: Displacement of [125I]CCK-8s from human recombinant CCK1 receptor at 10 uM measured after 60 mins by scintillation counter method relative to control
[28] = target: Delta-type opioid receptor (Homo sapiens) (UniProt P41143); test: Displacement of [3H] DADLE from human delta opioid receptor at 10 uM measured after 60 mins by scintillation counter method relative to control
Delta-type opioid receptor (Homo sapiens), sequence (P41143 whole entry): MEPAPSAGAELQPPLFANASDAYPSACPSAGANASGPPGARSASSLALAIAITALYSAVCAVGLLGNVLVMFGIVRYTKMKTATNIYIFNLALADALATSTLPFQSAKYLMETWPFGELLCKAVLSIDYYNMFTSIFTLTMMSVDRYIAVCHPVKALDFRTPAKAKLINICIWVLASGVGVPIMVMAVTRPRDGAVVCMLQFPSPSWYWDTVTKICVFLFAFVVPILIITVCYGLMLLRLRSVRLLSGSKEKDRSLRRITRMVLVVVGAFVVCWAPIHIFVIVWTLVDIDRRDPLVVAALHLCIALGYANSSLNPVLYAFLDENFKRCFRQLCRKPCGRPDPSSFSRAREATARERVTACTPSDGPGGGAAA

T1 sequence (P28223 whole entry): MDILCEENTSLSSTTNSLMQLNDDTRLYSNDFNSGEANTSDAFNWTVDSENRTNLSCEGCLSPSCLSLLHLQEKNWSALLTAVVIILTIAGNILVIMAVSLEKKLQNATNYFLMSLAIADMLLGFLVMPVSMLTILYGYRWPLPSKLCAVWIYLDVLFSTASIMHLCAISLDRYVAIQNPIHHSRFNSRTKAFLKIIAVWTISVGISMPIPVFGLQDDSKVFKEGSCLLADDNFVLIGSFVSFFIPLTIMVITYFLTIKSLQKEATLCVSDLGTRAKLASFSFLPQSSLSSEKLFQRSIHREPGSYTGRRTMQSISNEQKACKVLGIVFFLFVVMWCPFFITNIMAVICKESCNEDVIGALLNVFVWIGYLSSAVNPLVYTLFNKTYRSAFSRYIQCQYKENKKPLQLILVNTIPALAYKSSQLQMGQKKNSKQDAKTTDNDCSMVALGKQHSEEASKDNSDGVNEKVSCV

SMILES: CC(C)CCO[C@@H]1[C@H]2OC(C)(C)O[C@H]2[C@H]2Cn3cc(nn3)COCCCCCCN(CCc3ccc4ccccc4c3)CC[C@H]1O2
- IC50 [1]: 1800 nM
- Ki [1]: 970 nM
- inhibition [2]: 36.2%
- Activity [3]: 3.3%
- inhibition [4]: 29.9%
- IC50 [5]: 7400 nM
- Ki [5]: 3400 nM
- inhibition [6]: 25.2%
- inhibition [7]: 17.2%
- inhibition (Rattus norvegicus [8]): 13.4%
- inhibition [9]: 19%
- inhibition [10]: 33.8%
- inhibition [11]: 60.5%
- IC50 [12]: 490 nM
- Ki [12]: 310 nM
- inhibition [13]: 81.6%
- inhibition [14]: 89%
- inhibition (Rattus norvegicus [15]): 62.4%
- inhibition [16]: 93.2%
- inhibition [17]: 5%
- inhibition [18]: 68.3%
- inhibition [19]: 1.4%
- IC50 [20]: 120 nM
- Ki [20]: 100 nM
- inhibition [21]: 29.2%
- Activity (Rattus norvegicus [22]): 3.7%
- Activity [23]: 9.4%
- inhibition [24]: 3.9%
- inhibition [25]: 31%
- Activity [26]: 17.4%
- inhibition [27]: 61.4%
- inhibition [28]: 83.4%
